In the first experiment the target is T1, BACE-1 (Homo sapiens, UniProt P56817).
T1 construct: endogenous in cells; host or cells: HEK-293 cells stably transfected with wild type APP695
T1 sequence (P56817 46-501): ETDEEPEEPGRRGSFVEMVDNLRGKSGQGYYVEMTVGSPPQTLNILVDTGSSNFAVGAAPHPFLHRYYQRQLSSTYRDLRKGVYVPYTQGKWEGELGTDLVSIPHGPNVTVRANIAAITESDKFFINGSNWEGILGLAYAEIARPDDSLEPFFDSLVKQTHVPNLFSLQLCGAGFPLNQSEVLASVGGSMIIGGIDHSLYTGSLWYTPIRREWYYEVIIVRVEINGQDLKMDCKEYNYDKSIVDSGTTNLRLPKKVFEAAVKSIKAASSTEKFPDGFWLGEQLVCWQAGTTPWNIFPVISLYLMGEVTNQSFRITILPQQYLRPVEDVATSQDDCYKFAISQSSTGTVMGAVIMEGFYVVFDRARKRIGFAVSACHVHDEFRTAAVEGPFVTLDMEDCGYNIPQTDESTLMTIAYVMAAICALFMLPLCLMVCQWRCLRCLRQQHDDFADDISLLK
The experiment can be described thus: Cellular BACE-1 inhibition assay (in vitro cellular Amyloidβ 1-40 production, HTRF immunoassay). Format: cell-based.
Settings: not given
The method, then:
Materials and Methods: HEK-293 cells stably transfected with a DNA construct containing the coding sequence for the wild type APP695 sequence were grown in Dulbecco's Modified Eagle Medium (“DMEM”) supplemented with 10% fetal bovine serum, penicillin/streptomycin and 150 μg/mL G418. Cells were plated in 96-well plates at 35,000 cells/well and allowed to attach for 8-12 hours. Media was changed to DMEM supplemented with 10% fetal bovine serum, penicillin/streptomycin 15 minutes prior to compound addition. Diluted compounds were then added at a final concentration of 0.5% DMSO. After 48 hours, 4 μL of media from each well was added to a corresponding well of a 384 well plate (Perkin Elmer Cat#6008280) containing the HTRF reagents. HTRF reagents were obtained from the CisBio Amyloid β 1-40 peptide assay kit (Cat#62B40PEC) and were prepared as follows anti-peptide β (1-40)-Cryptate and anti-peptide […] were stored in 2 plate aliquots at −80° C. Diluent and Reconstitution buffer were stored at 4° C. Aliquots of the two antibodies were diluted 1:100 with Reconstitution buffer, and this mixture was diluted 1:2 with Diluent. 12 μL of the reagent mixture was added to the required wells of the 384 well assay plate. The assay plate was incubated at 4° C. for 17 hours and then analyzed for fluorescence at 665 and 620 nm. The following compounds were tested in the above assay. Some compounds were tested more than once, and the average is reported below.
For orientation: Time-resolved FRET reads energy transfer from a long-lived donor to a nearby acceptor.
In the case of `C[C@@]12CCOC[C@H]1C1(COC(N)=N1)c1cc(-c3cccnc3F)ccc1C2` (relative stereo) [Example 118, (4aR*,10aR*)-8-(2-fluoropyridin-3-yl)-4a-methyl-1,3,4,4a,5,10a-hexahydro-5′H-spiro[benzo[g]isochromene-10,4′-oxazol]-2′-amine], the IC50 (commonly the point on the concentration scale where inhibition reaches its midpoint) stood at 219 nM.

The same experiment, now with this note: inhibition of Amyloidβ 1-40 production; HEK-293 cells stably transfected with wild type APP695; 48 hours incubation; average where tested more than once; read-out: IC50.
Take `CN1C(=O)CC2(N=C1N)c1cc(-c3cc(F)cc(Cl)c3)ccc1OC1CC(=O)CCC12` (stereo not drawn) [Example 4, 2-amino-7′-(3-chloro-5-fluorophenyl)-1-methyl-1′,4′,4a′,9a′-tetrahydro-1H-spiro[pyrimidine-4,9′-xanthene]-3′,6(2′H,5H)-dione]: the IC50 worked out at 1190 nM.
For the compound `NC1=NC2(CO1)c1cc(-c3cncc(Cl)c3)ccc1OC1CCC(F)CC12` (stereo not drawn) [Example 27, 7′-(5-chloropyridin-3-yl)-2′-fluoro-1′,2′,3′,4′,4a′,9a′-hexahydro-5H-spiro[oxazole-4,9′-xanthen]-2-amine], the IC50 came to 64.2 nM.
Still for that read-out and setting: to `NC1=NC2(CO1)c1cc(-c3cccnc3F)ccc1OC1CCC3(CCO3)C[C@@H]12` (stereo partly drawn) [Example 199] belongs 630 nM; to `CC(C)CS(=O)(=O)N1CC[C@@H]2Oc3ccc(-c4cccnc4F)cc3[C@]3(COC(N)=N3)[C@H]2C1` (single isomer, unassigned) [Example 120], 41 nM.
Still for that read-out and setting: the result for `NC1=N[C@@]2(CO1)c1cc(-c3cncc(Cl)c3)ccc1OC1CC[C@H](OCC3CC3)C[C@@H]12` (relative stereo) [Example 28, (4R*,4a′S*,9a′R*)-7′-(5-chloropyridin-3-yl)-2′-(cyclopropylmethoxy)-1′,2′,3′,4′,4a′,9a′-hexahydro-5H-spiro[oxazole-4,9′-xanthen]-2-amine] reads 7.8 nM; that for `C[C@H]1OCCC2Oc3ccc(-c4cncc(Cl)c4)cc3[C@@]3(COC(N)=N3)[C@@H]21` (relative stereo) [Example 90, (1′R*4R*,4a′R*,10a′R*)-8′-(5-chloropyridin-3-yl)-1′-methyl-3′,4′,4a′,10a′-tetrahydro-1′H,5H-spiro[oxazole-4,10′-pyrano[4,3-b]chromen]-2-amine], 1340 nM.
Still for that read-out and setting: the result for `CCO[C@H]1CC[C@@H]2Oc3ccc(-c4cc(F)cc(C#N)c4)cc3C3(COC(N)=N3)[C@H]2C1` (stereo partly drawn) [Example 159, 3-((2′S,4a′S,9a′R)-2-amino-2′-ethoxy-1′,2′,3′,4′,4a′,9a′-hexahydro-5H-spiro[oxazole-4,9′-xanthen]-7′-yl)-5-fluorobenzonitrile] reads 76.1 nM; that for `Cc1nc(C(=O)Nc2ccc3c(c2)C2(COC(N)=N2)C2CCCCC2O3)co1` (single isomer, unassigned) [Example 14, N-(2-amino-1′,2′,3′,4′,4a′,9a′-hexahydro-5H-spiro[oxazole-4,9′-xanthene]-7′-yl)-2-methyloxazole-4-carboxamide], 73.5 nM.
With `NC1=NC2(CO1)c1cc(-c3cncc(Cl)c3)ccc1O[C@@H]1CCCC[C@H]12` (single isomer, unassigned) [Example 10, 7′-(5-chloropyridin-3-yl)-1′,2′,3′,4′,4a′,9a′-hexahydro-5H-spiro[oxazole-4,9′-xanthen]-2-amine], the IC50 amounted to 58.5 nM.
Same read-out and setting: the result for `NC1=NC2(CS1)c1cc(-c3cncnc3)ccc1O[C@H]1CC(O)CC[C@@H]12` (relative stereo) [Example 26, (4a′S*,9a′R*)-2-amino-7′-(pyrimidin-5-yl)-1′,2′,3′,4′,4a′,9a′-hexahydro-5H-spiro[thiazole-4,9′-xanthen]-3′-ol] reads 86.6 nM; that for `NC1=N[C@]2(CO1)c1cc(-c3cncc(Cl)c3)ccc1OC1CC[C@H](OCC3CC3)C[C@@H]12` (relative stereo) [Example 29, (4S*,4a′S*,9a′R*)-7′-(5-chloropyridin-3-yl)-2′-(cyclopropylmethoxy)-1′,2′,3′,4′,4a′,9a′-hexahydro-5H-spiro[oxazole-4,9′-xanthen]-2-amine], 8.9 nM.
Same read-out and setting: to `C[C@@]12CCO[C@@H]1[C@@]1(COC(N)=N1)c1cc(-c3cc(F)cc(Cl)c3)ccc1O2` [Example 266, (3aR,4′S,9aR)-7-(3-chloro-5-fluorophenyl)-3a-methyl-2,3,3a,9a-tetrahydro-5′H-spiro[furo[3,2-b]chromene-9,4′-oxazol]-2′-amine] belongs 5290 nM; to `N#Cc1cc(Cl)cc(-c2ccc3c(c2)[C@@]2(COC(N)=N2)[C@H]2C[C@@H](O)CC[C@@H]2O3)c1` [Example 140, 3-((2′S,4R,4a′S,9a′R)-2-amino-2′-hydroxy-1′,2′,3′,4′,4a′,9a′-hexahydro-5H-spiro[oxazole-4,9′-xanthen]-7′-yl)-5-chlorobenzonitrile], 48.3 nM; to `C[C@]12CCCO[C@@H]1[C@]1(COC(N)=N1)c1cc(-c3cncc(F)c3)ccc1O2` (relative stereo) [Example 88, (4R*,4a′S*,10a′R*)-8′-(5-fluoropyridin-3-yl)-4a′-methyl-3′,4′,4a′,10a′-tetrahydro-2′H,5H-spiro[oxazole-4,10′-pyrano[3,2-b]chromen]-2-amine], 154 nM.
Still for that read-out and setting: to `NC1=NC2(CO1)c1cc(-c3cncnc3)ccc1OC1CCCCC12` (single isomer, unassigned) [Example 11, 7′-(pyrimidin-5-yl)-1′,2′,3′,4′,4a′,9a′-hexahydro-5H-spiro[oxazole-4,9′-xanthen]-2-amine] belongs 69.5 nM; to `NC1=NC2(CO1)c1cc(NC(=O)c3ccc(Br)cn3)ccc1OC1CCCCC12` (racemic) [Example 17, N-(2-amino-1′,2′,3′,4′,4a′,9a′-hexahydro-5H-spiro[oxazole-4,9′-xanthene]-7′-yl)-5-bromopicolinamide], 147 nM.
Consider `NC1=NC2(CO1)c1cc(-c3cccnc3F)ccc1OC1CCNC[C@@H]12` (mixture of isomers) [Example 41, rac-trans-(4a,10a)-8-(2-fluoropyridin-3-yl)-1,2,3,4,4a,10a-hexahydro-5′H-spiro[chromeno[3,2-c]pyridine-10,4′-oxazol]-2′-amine], for which the IC50 came out at 1330 nM.
The same measure, in the same setting: to `NC1=NC2(CO1)c1cc(-c3cncnc3)ccc1OC1CCC(O)C[C@@H]12` (stereo in doubt) [Example 32, (4a′S*,9a′R*)-2-amino-7′-(pyrimidin-5-yl)-1′,2′,3′,4′,4a′,9a′-hexahydro-5H-spiro[oxazole-4,9′-xanthen]-2′-ol] belongs 118 nM.
Same read-out and setting: the result for `NC1=NC2(CS1)c1cc(-c3cncc(Cl)c3)ccc1OC1CC(O)CC[C@@H]12` (single isomer, unassigned) [Example 25, (4a′S*,9aR*)-2-amino-7′-(5-chloropyridin-3-yl)-1′,2′,3′,4′,4a′,9a′-hexahydro-5H-spiro[thiazole-4,9′-xanthen]-3′-ol] reads 24.1 nM; that for `NC1=NC2(CO1)c1cc(-c3cccnc3F)ccc1OC1CCC(O)C[C@@H]12` (stereo in doubt) [Example 31, (4a′S*,9a′R*)-2-amino-7′-(2-fluoropyridin-3-yl)-1′,2′,3′,4′,4a′,9a′-hexahydro-5H-spiro[oxazole-4,9′-xanthen]-2′-ol], 47.3 nM.
The same measure, in the same setting: to `CN1C(=O)CC2(N=C1N)c1cc(-c3cc(F)cc(Cl)c3)ccc1OC1CC3(CCC12)OCCO3` (stereo not drawn) [Example 3, 2″-amino-7′-(3-chloro-5-fluorophenyl)-1″-methyl-2′,4′,4′a,5″,6″,9′a-hexahydro-1′H,1″H-dispiro[1,3-dioxolane-2,3′-xanthene-9′,4″-pyrimidine]-6″-one] belongs 3080 nM; to `NC1=N[C@@]2(CS1)c1cc(-c3cncnc3)ccc1O[C@H]1CC[C@H](O)C[C@@H]12` [Example 146, (2′S,4R,4a′S,9a′R)-2-amino-7′-(pyrimidin-5-yl)-1′,2′,3′,4′,4a′,9a′-hexahydro-5H-spiro[thiazole-4,9′-xanthen]-2′-ol], 192 nM.
In the case of `NC1=NC2(CO1)c1cc(-c3cncc(Cl)c3)ccc1O[C@H]1CCC(O)C[C@H]12` (stereo partly drawn) [Example 48, (4a′S,9a′S)-2-amino-7′-(5-chloropyridin-3-yl)-1′,2′,3′,4′,4a′,9a′-hexahydro-5H-spiro[oxazole-4,9′-xanthen]-2′-ol], the IC50 was 2550 nM.
The same measure, in the same setting: the result for `COC1CCC2Oc3ccc(-c4cncc(Cl)c4)cc3C3(COC(N)=N3)C2C1` (stereo not drawn) [Example 54, 7′-(5-chloropyridin-3-yl)-2′-methoxy-1′,2′,3′,4′,4a′,9a′-hexahydro-5H-spiro[oxazole-4,9′-xanthen]-2-amine] reads 33.5 nM; that for `NC1=NC2(CO1)c1cc(-c3cccnc3F)ccc1OC1CCN(C(=O)OCc3ccccc3)C[C@@H]12` (mixture of isomers) [Example 5, rac-trans-(4a,10a)-benzyl 2′-amino-8-(2-fluoropyridin-3-yl)-1,4,4a,10a-tetrahydro-5′H-spiro[chromeno[3,2-c]pyridine-10,4′-oxazole]-2(3H)-carboxylate], 133 nM; that for `NC1=NC2(CO1)c1cc(-c3cccnc3F)ccc1OC1CCN(CC(F)(F)F)C[C@@H]12` (mixture of isomers) [Example 44, rac-trans-(4a,10a)-8-(2-fluoropyridin-3-yl)-2-(2,2,2-trifluoroethyl)-1,2,3,4,4a,10a-hexahydro-5′H-spiro[chromeno[3,2-c]pyridine-10,4′-oxazol]-2′-amine], 304 nM.

The record behind these values is patent US20120157448A1, “COMPOUNDS FOR TREATING NEURODEGENERATIVE DISEASES” (priority 2010, published 2012).
